# Test results as given in article PMC12198407, “Preclinical and first-in-human of purinostat mesylate, a novel selective HDAC I/IIb inhibitor, in relapsed/refractory multiple myeloma and lymphoma” (Signal Transduction and Targeted Therapy, 2025).
# Values joined by “and” are separate entries in the source; they are usually repeats but may differ in a detail not shown here. Identical values can stand only once. Like-named read-outs stand apart in the source and are kept apart here.
# How the values were obtained:
# [1] = target: T1, CYP3A4 (Homo sapiens, UniProt P08684); test: CYP inhibition, human liver microsomes; type: in vitro ADME
# T1 construct: human liver microsomal cytochrome P450 isoenzymes; from tissue; host or cells: human liver microsomes
# [2] = clinical; type: in vivo, human
# Description: To analyze the pharmacokinetics (PK) of PM, serial blood samples were collected at pre-dose and at 5 minutes, 10 minutes, 20 minutes, 30 minutes, 32 minutes, 35 minutes, 45 minutes, 1 hour, 2 hours, 4 hours, 8 hours, and 12 hours post-dose on day 1. During the multiple dosing phase, blood samples were collected at pre-dose on day 15, and 5 minutes, 10 minutes, 20 minutes, 30 minutes, 32 minutes, 35 minutes, 45 minutes, 1 hour, 2 hours, 4 hours, 8 hours, and 12 hours post-dose on day 15. PM plasma concentrations were determined using ultra performance liquid chromatography (UPLC) coupled with tandem mass spectrometry (MS-MS) detection. Pharmacokinetic parameters, including Tmax, Cmax, AUC0-t, AUC0-∞, t1/2, MRT, CL, Ke, and V, were calculated using the non-compartmental analysis (NCA) method with the professional pharmacokinetic software Phoenix WinNonlin (Version 8.1). Dose proportionality was assessed in single-dose experiments, while drug accumulation was evaluated in multiple-dose experiments.
# [3] = Acute toxicity test, intravenous; type: in vivo, rats
# Description: The experimental design included low, medium, and high doses of 50, 100, and 200 mg/kg administered intravenously. In the medium and high-dose groups, symptoms observed included ear reddening, reduced activity, prone posture, rapid breathing, and deep gasping; in the high-dose group, additional signs included deep gasping, arched back, and weight loss.
# [4] = target: HDAC8 (Homo sapiens, UniProt Q9BY41); test: HDAC enzyme activity in vitro; type: biochemical
# [5] = tested on: mouse B-cell lymphoma; test: Ighmyc transgenic B-cell lymphoma model, survival; type: in vivo, mice
# [6] = tested on: c-MYC/KRAS12V transformed BaF3 cells; test: Cell viability CCK8; type: cell-based
# Description: PM, panobinostat, Pom and DXM were dissolved in DMSO and stored at -20°C freezer. Cells were seeded at a density of 1.0-3.0 × 10^4 cells/well/100 μL in 96-well plates. After overnight incubation, cells were treated with the drug-containing culture medium for 24, 48, or 72 hours, and cell viability was measured using CCK8 (Oriscience, Chengdu, China) at the indicated time points with Biotek Cytation 3 at a wavelength of 450 nm. The IC50 values were calculated using GraphPad Prism 9.4.1, and Calcusyn 2.0 software was employed to calculate the CI values.
# Mice were weighed every two days. All data are represented as mean ± SEM.
# [7] = Safety pharmacology, ECG and blood pressure; type: in vivo, Beagle dogs; conditions: 3.6 mg/kg i.v.
# Description: In the 1.2 and 3.6 mg/kg groups, transient increases in heart rate were observed, and in the 3.6 mg/kg group, a transient and reversible prolongation of QT interval (9.6%) was also noted. Additionally, there were no significant effects observed on other qualitative and quantitative ECG parameters or blood pressure in the dogs. […] In the 90 mg/kg group, reduced locomotor activity and decreased standing frequency were also observed, but these effects returned to baseline after 24 hours. No significant effects were noted on other neurological behaviors in rats, and no impacts on the respiratory system were observed.
# [8] = Pharmacokinetics in plasma and tumor, HCT116 tumor-bearing mice; type: in vivo, nude mice
# Description: The mean residence time (MRT) was 0.51 ± 0.06 hours in plasma and 39.48 ± 4.74 hours in tumor.
# [9] = target: HDAC6 (Homo sapiens, UniProt Q9UBN7); test: HDAC enzyme activity in vitro; type: biochemical
# Sequence of HDAC6 (Q9UBN7 whole entry): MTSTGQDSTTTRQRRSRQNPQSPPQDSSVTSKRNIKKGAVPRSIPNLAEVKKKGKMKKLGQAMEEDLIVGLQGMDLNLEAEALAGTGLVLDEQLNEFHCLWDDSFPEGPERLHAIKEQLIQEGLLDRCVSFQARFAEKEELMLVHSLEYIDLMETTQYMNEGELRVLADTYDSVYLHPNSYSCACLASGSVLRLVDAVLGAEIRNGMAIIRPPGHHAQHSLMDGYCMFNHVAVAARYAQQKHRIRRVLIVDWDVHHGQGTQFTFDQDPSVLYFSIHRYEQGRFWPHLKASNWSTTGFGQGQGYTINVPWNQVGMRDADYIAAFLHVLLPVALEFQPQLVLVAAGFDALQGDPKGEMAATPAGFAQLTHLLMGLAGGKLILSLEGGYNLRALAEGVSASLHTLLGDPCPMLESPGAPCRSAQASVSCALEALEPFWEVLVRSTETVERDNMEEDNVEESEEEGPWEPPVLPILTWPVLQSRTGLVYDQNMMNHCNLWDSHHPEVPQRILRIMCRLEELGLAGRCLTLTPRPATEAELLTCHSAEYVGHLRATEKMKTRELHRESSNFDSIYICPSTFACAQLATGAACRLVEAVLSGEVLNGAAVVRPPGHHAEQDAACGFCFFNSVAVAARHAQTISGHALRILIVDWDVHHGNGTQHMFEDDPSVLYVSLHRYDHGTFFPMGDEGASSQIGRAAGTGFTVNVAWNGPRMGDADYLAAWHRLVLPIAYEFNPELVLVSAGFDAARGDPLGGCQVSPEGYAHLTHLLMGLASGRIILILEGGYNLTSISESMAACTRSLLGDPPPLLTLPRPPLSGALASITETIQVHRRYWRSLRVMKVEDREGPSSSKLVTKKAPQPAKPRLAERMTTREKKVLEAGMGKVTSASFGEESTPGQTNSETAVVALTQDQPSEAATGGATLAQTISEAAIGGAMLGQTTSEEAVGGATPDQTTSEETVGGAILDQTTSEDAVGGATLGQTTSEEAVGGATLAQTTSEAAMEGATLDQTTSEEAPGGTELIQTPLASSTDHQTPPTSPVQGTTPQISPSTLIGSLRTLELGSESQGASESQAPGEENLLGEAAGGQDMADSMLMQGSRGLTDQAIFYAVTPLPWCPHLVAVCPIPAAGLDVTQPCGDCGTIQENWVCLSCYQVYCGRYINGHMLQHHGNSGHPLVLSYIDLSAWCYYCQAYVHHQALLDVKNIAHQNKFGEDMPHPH
# T1 sequence (P08684 whole entry): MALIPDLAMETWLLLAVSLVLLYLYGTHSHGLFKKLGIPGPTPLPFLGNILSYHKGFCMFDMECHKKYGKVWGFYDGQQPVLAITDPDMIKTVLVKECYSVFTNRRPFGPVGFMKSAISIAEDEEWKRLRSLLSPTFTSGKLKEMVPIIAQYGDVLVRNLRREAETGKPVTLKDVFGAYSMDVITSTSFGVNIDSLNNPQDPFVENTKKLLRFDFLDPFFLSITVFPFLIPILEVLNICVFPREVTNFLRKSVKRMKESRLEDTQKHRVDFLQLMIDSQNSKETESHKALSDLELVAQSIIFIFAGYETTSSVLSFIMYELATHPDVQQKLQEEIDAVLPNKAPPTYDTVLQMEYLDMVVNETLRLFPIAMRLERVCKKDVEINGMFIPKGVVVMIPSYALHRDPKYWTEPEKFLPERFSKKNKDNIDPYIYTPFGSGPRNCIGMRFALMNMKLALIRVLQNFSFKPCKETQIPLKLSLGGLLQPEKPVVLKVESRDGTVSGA
# Sequence of HDAC8 (Q9BY41 whole entry): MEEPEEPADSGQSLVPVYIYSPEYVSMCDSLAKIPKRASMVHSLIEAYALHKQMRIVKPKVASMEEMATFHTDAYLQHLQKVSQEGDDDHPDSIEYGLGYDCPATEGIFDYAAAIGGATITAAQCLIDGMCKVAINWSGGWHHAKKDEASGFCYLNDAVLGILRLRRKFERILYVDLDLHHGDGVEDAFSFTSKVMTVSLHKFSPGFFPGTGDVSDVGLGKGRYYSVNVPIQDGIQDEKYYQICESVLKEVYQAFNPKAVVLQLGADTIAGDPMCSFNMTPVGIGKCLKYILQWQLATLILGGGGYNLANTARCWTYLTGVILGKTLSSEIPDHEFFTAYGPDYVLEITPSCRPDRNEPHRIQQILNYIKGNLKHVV
smiles,measurement,setting,value
"CN(Cc1nc2c(N3CCOCC3)nc(-c3ccc(N)cc3)nc2n1C)c1ncc(C(=O)NO)cn1.CS(=O)(=O)O [PM, 2-(((2-(4-Aminophenyl)-9-methyl-6-(4-morpholinyl)-9H-purine-8-yl)methyl)methylamino)-N-hydroxy-5-pyrimidine-carboxamide Mesylate]",IC50,[1]; midazolam as the substrate,> 10000 nM
same,IC50,[1]; testosterone as the substrate,1130 nM
same,accumulation index for AUC0–∞ (multiple doses/single dose),[2]; 1.2 to 15.0 mg/m^2,0.97–1.17
same,accumulation index for Cmax (multiple doses/single dose),[2]; 1.2 to 15.0 mg/m^2,0.96 to 1.32
same,half-life,"[2]; human, plasma, iv, single (Day 1) intravenous, range over doses, read-out: half-life (t1/2)",2.3 to 3.51 h
same,MTD,"[3]; both sexes, rat, in vivo, iv, single i.v., read-out: maximum tolerated dose (MTD)",100 mg/kg
same,mortality,"[3]; high dose 200 mg/kg, days 1 to 6",Six out of ten
same,IC50,[4],3.8 nM
same,median survival time,"[5]; 2.5 mg/kg, solvent control 10.5 days",19.5 days
same,median survival time,[5]; 5 mg/kg,23 days
same,median survival time,[5]; 10 mg/kg,22.5 days
same,superior antiproliferation activity compared to panobinostat,[6],~4 fold
same,"prolongation of QT interval, transient and reversible",[7],9.6%
same,tumor AUC(0-96h),[8]; multiple i.v. 10 mg/kg,9068 ± 213 µg·h/L
same,Cmax,"[8]; nude, mouse, plasma, iv, 10 mg/kg, single i.v. 10 mg/kg, read-out: Cmax in plasma",442 ± 67.2 ng/mL
same,MRT,"[8]; nude, mouse, plasma, iv, 10 mg/kg, single i.v. 10 mg/kg, read-out: MRT in plasma",0.51 ± 0.06 h
same,half-life,"[8]; nude, mouse, plasma, iv, 10 mg/kg, single i.v. 10 mg/kg, read-out: elimination half-life (T1/2) in plasma (converted)",1.21 h
same,AUC(0-t),"[8]; nude, mouse, plasma, iv, single i.v. 10 mg/kg, read-out: plasma AUC(0-8h)",174 ± 25.2 ng·h/mL
same,Kp,"[8]; nude, mouse, tumor and plasma, intravenous, 10 mg/kg, single dose, read-out: tumor AUC0-t / plasma AUC0-t ratio",74.4
same,concentration at 96 h,"[8]; nude, mouse, tumor, intravenous, 10 mg/kg, single dose, read-out: drug concentration in tumor tissue after 96 hours",69 ng/mL and ~140 nM
same,Cmax,"[8]; nude, mouse, tumor, iv, 10 mg/kg, multiple i.v. 10 mg/kg, read-out: Cmax in tumor",283 ± 64.8 ng/mL
same,MRT,"[8]; nude, mouse, tumor, iv, 10 mg/kg, multiple i.v. 10 mg/kg, read-out: MRT in tumor",34.7 ± 1.86 h
same,half-life,"[8]; nude, mouse, tumor, iv, 10 mg/kg, multiple i.v. 10 mg/kg, read-out: elimination half-life (T1/2) in tumor (converted)",68.7 ± 54.5 h
same,Cmax,"[8]; nude, mouse, tumor, iv, 10 mg/kg, single i.v. 10 mg/kg, read-out: Cmax in tumor",1040 ± 167 ng/mL
same,MRT,"[8]; nude, mouse, tumor, iv, 10 mg/kg, single i.v. 10 mg/kg, read-out: MRT in tumor",39.5 ± 4.74 h
same,half-life,"[8]; nude, mouse, tumor, iv, 10 mg/kg, single i.v. 10 mg/kg, read-out: elimination half-life (T1/2) in tumor (converted)",45.3 h
same,tumor AUC(0-96h),[8]; single i.v. 10 mg/kg,12922 ± 498 µg/Lh
same,IC50,[9],11.5 nM
